{"source": "patent US7138361B2", "about": "“Herbicidal heterocycles” (E. I. du Pont de Nemours and Company, priority 2000, dated 2006)", "format_in_all_cases": "in vivo", "key": {"Nightshade": {"system": "Nightshade", "assay": "Test C preemergence"}, "Sunflower": {"system": "Sunflower", "assay": "Test C preemergence", "settings": "Rate 125 g/ha; scale 0 to 100, 0 no effect, 100 complete control"}, "[1]": {"system": "Surinam grass (Brachiaria decumbens)", "assay": "Test C preemergence", "outline": "(§1)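 Pre- and postemergence treatments used a non-phytotoxic solvent/surfactant formulation; post-treated plants measured 2 to 18 cm. Greenhouse hold 12–14 d; % control estimated visually relative to controls.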"}, "[2]": {"system": "bermudagrass (Cynodon dactylon)", "assay": "Test C preemergence", "outline": "as §1"}, "[3]": {"system": "cocklebur (Xanthium strumarium)", "assay": "Test C preemergence", "outline": "as §1"}, "[4]": {"system": "common ragweed (Ambrosia elatior)", "assay": "Test C preemergence", "outline": "as §1"}, "corn (Zea mays)": {"system": "corn (Zea mays)", "assay": "Test C preemergence", "outline": "as §1"}, "[5]": {"system": "crabgrass (Digitaria sanguinalis)", "assay": "Test C preemergence", "outline": "as §1"}, "[6]": {"system": "giant foxtail (Setaria faberii)", "assay": "Test C preemergence", "outline": "as §1"}, "[7]": {"system": "goosegrass (Eleusine indica)", "assay": "Test C preemergence", "outline": "as §1"}, "[8]": {"system": "johnsongrass (Sorghum halepense)", "assay": "Test C preemergence", "outline": "as §1"}, "kochia (Kochia scoparia)": {"system": "kochia (Kochia scoparia)", "assay": "Test C preemergence", "outline": "as §1"}, "[9]": {"system": "lambsquarters (Chenopodium album)", "assay": "Test C preemergence", "outline": "as §1"}, "[10]": {"system": "morningglory (Ipomoea hederacea)", "assay": "Test C preemergence", "outline": "as §1"}, "[11]": {"system": "pigweed (Amaranthus retroflexus)", "assay": "Test C preemergence", "outline": "as §1"}, "soybean (Glycine max)": {"system": "soybean (Glycine max)", "assay": "Test C preemergence", "outline": "as §1"}, "[12]": {"system": "velvetleaf (Abutilon theophrasti)", "assay": "Test C preemergence", "outline": "as §1"}, "[13]": {"system": "woolly cupgrass (Eriochloa villosa)", "assay": "Test C preemergence", "outline": "as §1"}, "[14]": {"system": "yellow nutsedge (Cyperus esculentus)", "assay": "Test C preemergence", "outline": "as §1"}, "[15]": {"system": "barnyardgrass (Echinochloa crus-galli)", "assay": "Test C flooded paddy test", "settings": "for Plant response rating, Barnyardgrass: flooded paddy test, scale 0 to 100 (0 no effect, 100 complete control)", "outline": "(§2)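 Visual ratings (0 = no effect, 100 = complete control) were made 12–14 days after treatment, relative to greenhouse controls. Plants in the flooded paddy test were rice, smallflower flatsedge, duck salad and barnyardgrass, treated at the 2-leaf stage.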"}, "[16]": {"system": "duck salad (Heteranthera limosa)", "assay": "Test C flooded paddy test", "settings": "for Ducksalad plant response rating: Flooded Paddy, scale 0 to 100, 0 no effect, 100 complete control; for Plant response rating, Ducksalad: flooded paddy test, scale 0 to 100 (0 no effect, 100 complete control)", "outline": "as §2"}, "[17]": {"system": "smallflower flatsedge (Cyperus difformis)", "assay": "Test C flooded paddy test", "settings": "for Flatsedge plant response rating: Flooded Paddy, scale 0 to 100, 0 no effect, 100 complete control; for Plant response rating, Flatsedge: flooded paddy test, scale 0 to 100 (0 no effect, 100 complete control)", "outline": "as §2"}, "[18]": {"settings": "Rate 125 g/ha, scale 0 to 100, 0 no effect, 100 complete control"}, "[19]": {"settings": "preemergence, Rate 62 g/ha, scale 0 to 100"}, "[20]": {"settings": "preemergence, Rate 500 g/ha, visual evaluation after 12 to 14 days"}, "[21]": {"settings": "preemergence, Rate 250 g/ha, scale 0 to 100, 0 no effect, 100 complete control"}}, "data": [{"smiles": "COc1cc(N2CCC(n3ccc(C(C)C)n3)C2=O)ccc1Cl", "note": "(centres unmarked) [Compound 120]", "values": [{"measurement": "Plant response rating, Nightshade", "setting": "Nightshade; Rate 62 g/ha, scale 0 to 100", "value": 100}, {"measurement": "Plant response rating, Nightshade", "setting": "Nightshade; [18]", "value": 100}, {"measurement": "Plant response rating, Nightshade", "setting": "Nightshade; Rate 250 g/ha, scale 0 to 100, 0 no effect, 100 complete control", "value": 100}, {"measurement": "Plant response rating, Sunflower", "setting": "Sunflower", "value": 90}, {"measurement": "Plant response rating, Surinam grass", "setting": "[1]; [18]", "value": 100}, {"measurement": "Plant response rating, Surinam grass", "setting": "[1]; [19]", "value": 90}, {"measurement": "Plant response rating (0 to 100), Surinam grass", "setting": "[1]; [20]", "value": 100}, {"measurement": "Plant response rating, Surinam grass", "setting": "[1]; [21]", "value": 100}, {"measurement": "Plant response rating, Bermudagrass", "setting": "[2]; [18]", "value": 100}, {"measurement": "Plant response rating, Bermudagrass", "setting": "[2]; [19]", "value": 100}, {"measurement": "Plant response rating (0 to 100 where 0 is no effect and 100 is complete control), Bermudagrass", "setting": "[2]; [20]", "value": 100}, {"measurement": "Plant response rating, Bermudagrass", "setting": "[2]; [21]", "value": 100}, {"measurement": "Plant response rating, Cocklebur", "setting": "[3]; [18]", "value": 0}, {"measurement": "Plant response rating, Cocklebur", "setting": "[3]; [19]", "value": 0}, {"measurement": "Plant response rating (0 to 100), Cocklebur", "setting": "[3]; [20]", "value": 30}, {"measurement": "Plant response rating, Cocklebur", "setting": "[3]; [21]", "value": 30}, {"measurement": "Plant response rating, Ragweed, Common", "setting": "[4]; [18]", "value": 100}, {"measurement": "Plant response rating, Ragweed, Common", "setting": "[4]; [19]", "value": 100}, {"measurement": "Plant response rating (0 to 100), Ragweed, Common", "setting": "[4]; [20]", "value": 100}, {"measurement": "Plant response rating, Ragweed, Common", "setting": "[4]; [21]", "value": 100}, {"measurement": "Plant response rating, Corn", "setting": "corn (Zea mays); [18]", "value": 0}, {"measurement": "Plant response rating, Corn", "setting": "corn (Zea mays); [19]", "value": 0}, {"measurement": "Plant response rating (0 to 100), Corn", "setting": "corn (Zea mays); [20]", "value": 60}, {"measurement": "Plant response rating, Corn", "setting": "corn (Zea mays); [21]", "value": 20}, {"measurement": "Plant response rating, Crabgrass", "setting": "[5]; [18]", "value": 100}, {"measurement": "Plant response rating, Crabgrass", "setting": "[5]; [19]", "value": 100}, {"measurement": "Plant response rating (0 to 100), Crabgrass", "setting": "[5]; [20]", "value": 100}, {"measurement": "Plant response rating, Crabgrass", "setting": "[5]; [21]", "value": 100}, {"measurement": "Plant response rating, Foxtail, Giant", "setting": "[6]; [18]", "value": 50}, {"measurement": "Plant response rating, Foxtail, Giant", "setting": "[6]; [19]", "value": 50}, {"measurement": "Plant response rating (0 to 100), Foxtail, Giant", "setting": "[6]; [20]", "value": 100}, {"measurement": "Plant response rating, Foxtail, Giant", "setting": "[6]; [21]", "value": 60}, {"measurement": "Plant response rating, Goosegrass", "setting": "[7]; [18]", "value": 100}, {"measurement": "Plant response rating, Goosegrass", "setting": "[7]; [19]", "value": 100}, {"measurement": "Plant response rating (0 to 100), Goosegrass", "setting": "[7]; [20]", "value": 100}, {"measurement": "Plant response rating, Goosegrass", "setting": "[7]; [21]", "value": 100}, {"measurement": "Plant response rating, Johnsongrass", "setting": "[8]; [18]", "value": 80}, {"measurement": "Plant response rating, Johnsongrass", "setting": "[8]; [19]", "value": 20}, {"measurement": "Plant response rating (0 to 100), Johnsongrass", "setting": "[8]; [20]", "value": 100}, {"measurement": "Plant response rating, Johnsongrass", "setting": "[8]; [21]", "value": 100}, {"measurement": "Plant response rating, Kochia", "setting": "kochia (Kochia scoparia); [18]", "value": 100}, {"measurement": "Plant response rating, Kochia", "setting": "kochia (Kochia scoparia); [19]", "value": 100}, {"measurement": "Plant response rating (0 to 100), Kochia", "setting": "kochia (Kochia scoparia); [20]", "value": 100}, {"measurement": "Plant response rating, Kochia", "setting": "kochia (Kochia scoparia); [21]", "value": 100}, {"measurement": "Plant response rating, Lambsquarters", "setting": "[9]; [18]", "value": 100}, {"measurement": "Plant response rating, Lambsquarters", "setting": "[9]; [19]", "value": 100}, {"measurement": "Plant response rating (0 to 100), Lambsquarters", "setting": "[9]; [20]", "value": 100}, {"measurement": "Plant response rating, Lambsquarters", "setting": "[9]; [21]", "value": 100}, {"measurement": "Plant response rating, Morningglory", "setting": "[10]; [18]", "value": 60}, {"measurement": "Plant response rating, Morningglory", "setting": "[10]; [19]", "value": 60}, {"measurement": "Plant response rating (0 to 100), Morningglory", "setting": "[10]; [20]", "value": 100}, {"measurement": "Plant response rating, Morningglory", "setting": "[10]; [21]", "value": 100}, {"measurement": "Plant response rating, Pigweed", "setting": "[11]; [18]", "value": 100}, {"measurement": "Plant response rating, Pigweed", "setting": "[11]; [19]", "value": 100}, {"measurement": "Plant response rating (0 to 100), Pigweed", "setting": "[11]; [20]", "value": 70}, {"measurement": "Plant response rating, Pigweed", "setting": "[11]; [21]", "value": 50}, {"measurement": "Plant response rating, Soybean", "setting": "soybean (Glycine max); [18]", "value": 70}, {"measurement": "Plant response rating, Soybean", "setting": "soybean (Glycine max); [19]", "value": 60}, {"measurement": "Plant response rating (0 to 100), Soybean", "setting": "soybean (Glycine max); [20]", "value": 100}, {"measurement": "Plant response rating, Soybean", "setting": "soybean (Glycine max); [21]", "value": 80}, {"measurement": "Plant response rating, Velvetleaf", "setting": "[12]; [18]", "value": 100}, {"measurement": "Plant response rating, Velvetleaf", "setting": "[12]; [19]", "value": 80}, {"measurement": "Plant response rating (0 to 100), Velvetleaf", "setting": "[12]; [20]", "value": 100}, {"measurement": "Plant response rating, Velvetleaf", "setting": "[12]; [21]", "value": 100}, {"measurement": "Plant response rating, Cupgrass, Woolly", "setting": "[13]; [18]", "value": 100}, {"measurement": "Plant response rating, Cupgrass, Woolly", "setting": "[13]; [19]", "value": 100}, {"measurement": "Plant response rating (0 to 100), Cupgrass, Woolly", "setting": "[13]; [20]", "value": 100}, {"measurement": "Plant response rating, Cupgrass, Woolly", "setting": "[13]; [21]", "value": 100}, {"measurement": "Plant response rating, Nutsedge", "setting": "[14]; [18]", "value": 80}, {"measurement": "Plant response rating, Nutsedge", "setting": "[14]; [19]", "value": 40}, {"measurement": "Plant response rating (0 to 100), Nutsedge", "setting": "[14]; [20]", "value": 100}, {"measurement": "Plant response rating, Nutsedge", "setting": "[14]; [21]", "value": 100}, {"measurement": "Barnyardgrass plant response rating", "setting": "[15]; Flooded Paddy, Rate 250 g/ha, scale 0 to 100, 0 no effect, 100 complete control", "value": 80}, {"measurement": "Plant response rating, Barnyardgrass", "setting": "[15]; Rate 62 g/ha", "value": 20}, {"measurement": "Plant response rating, Barnyardgrass", "setting": "[15]; Rate 125 g/ha", "value": 50}, {"measurement": "Ducksalad plant response rating", "setting": "[16]; Rate 250 g/ha", "value": 100}, {"measurement": "Ducksalad plant response rating", "setting": "[16]; Rate 500 g/ha", "value": 100}, {"measurement": "Plant response rating, Ducksalad", "setting": "[16]; Rate 62 g/ha", "value": 70}, {"measurement": "Plant response rating, Ducksalad", "setting": "[16]; Rate 125 g/ha", "value": 100}, {"measurement": "Flatsedge plant response rating", "setting": "[17]; Rate 250 g/ha", "value": 100}, {"measurement": "Flatsedge plant response rating", "setting": "[17]; Rate 500 g/ha", "value": 100}, {"measurement": "Plant response rating, Flatsedge", "setting": "[17]; Rate 62 g/ha", "value": 90}, {"measurement": "Plant response rating, Flatsedge", "setting": "[17]; Rate 125 g/ha", "value": 100}]}]}
